Experimental data taken from patent US7332615B2, “Hydrophilic analogs of 4,8-dihydrobenzodithiophene-4,8-diones as anticancer agents” (Industrial Technology Research Institute, priority 2004, dated 2008).

Legend:
Format in all cases: cell-based
NCI-H460 = assay: Cytotoxicity Assays Method A (alamarBlue anti-proliferative assay), NCI-H460; conditions: for IC50 / CC50: Homo sapiens; for IC50: NCI-H460, 72 h, read-out: IC50 (50% Inhibition Concentration); for CC50 / TGI (Total growth Inhibition): NCI-H460, 72-hour incubation, alamarBlue; for CC50: read-out: LC50 (50% Lethal Concentration)
Excerpt: (§1) Cytotoxicity Assays Method A (HUVEC, MCF-7, HT-29, Hep 3B and NCl-H460) [S. A. Ahmed, R. M. Gogal Jr., and J. E. Walsh, Journal of Immunological Methods 170: 211-224, (1994): M. R. Boyd, Status of the NCl preclinical antitumor drug discovery screen. (Published by J. B. Lippincoft Company, Philadelphia, Pa. 19105, USA) Principles & Practices of Oncology Updates 3 # 10: 1-12, (1989); M. R. Boyd, et al. Data display and analysis strategies for the NCl disease-oriented in vitro antitumor drug screen. In: Cytotoxic anti-cancer drugs: models and concepts for drug discovery and development. Boston: Kluwer Academic, Pages; 11-34, (1992)]
(§2) The test compounds were dissolved in 100% DMSO and then diluted with sterile distilled water to obtain initial working solutions of 20000, 2000, 200, 20 and 2 μM in 80% DMSO. A 200 fold dilution was further made in culture media to generate final assay concentrations of 100, 10, 1, 0.1 and 0.01 μM in 0.4% DMSO.
(§3) Aliquots of 100 μl of cell suspension (about 1.5-3.0×10^3/well) were placed in 96-well microtiter plates in an atmosphere of 5% CO2 at 37° C. After 24 hours, 100 μl of growth medium and 1 μl of test solution or vehicle (80% DMSO) were added respectively per well in duplicate for an additional 72-hour incubation. Thus, the final concentration of DMSO was 0.4%. The test compounds, IIa-1, IIb-1 and VII-1 were evaluated at concentrations of 100, 10, 1, 0.1 and 0.01 μM. At the end of incubation, 20 μl of alamarBlue 90% reagent was added to each well for another 6-hour incubation before detection of cell viability by fluorescent intensity. Fluorescent intensity was measured using a Spectraflour Plus plate reader with excitation at 530 nm and emission at 590 nm.
(§4) The measured results was calculated by the following formula: PG(%)=100×(Mean Ftest−Mean Ftime0)/(Mean Fctrl−Mean Ftime0)] If(Mean Ftest−Mean Ftime0)<0, then PG(%)=100×(Mean Ftest−Mean Ftime0)/(Mean Ftime0−Mean Fblank) wherein PG represents percent growth;
(§5) A decrease of 50% or more (≧50%) in fluorescent intensity relative to the vehicle-treated control indicates significant cytostatic or cytotoxic activity, and semi-quantitative values for IC50, TGI and LC50 were then determined by nonlinear regression using GraphPad Prism (GraphPad Software, USA).
(§6) IC50 (50% Inhibition Concentration); Test compound concentration where the increase from times in the number or mass of treated cells was only 50% as much as the corresponding increase in the vehicle-control at the end of experiment.
(§7) TGI (Total Growth Inhibition): Test compound concentration where the number or mass of treated cells at the end of experiment was equal to that at time0.
(§8) LC50 (50% Lethal Concentration): Test compound concentration where the number or mass of treated cells at the end of experiment was half that at time.
(§9) The assays were used to detect changes in cell proliferation based on the ability of viable cells to cause alamarBlue to change from its oxidized to a reduced form. With the results obtained from the alamarBlue reaction, cell proliferation can be quantified and metabolic activity of viable cell can be examined.
(§10) The succinate derivatives of compounds IIa-1, IIb-1 and VII-1 were tested for possible effect on the proliferation of four human tumor cell lines ˜MCF-7 (breast), HT-29 (colon), Hep3B (liver), and NCl—H 460 (lung) as well as one human umbilical vein endothelial cell (HUVEC) at assay concentration from 0.01 to 100 μM, through serial 10-fold dilution.

prostate cancer (PC-3) = assay: Cytotoxicity Assays Method C, PC-3; conditions: for IC50: 72 h, read-out: IC50 PC-3; for activity against the androgen-insensitive prostate cancer cell line PC-3 (in words): PC-3, summary of Table 3
Hep 3B = assay: Cytotoxicity Assays Method A (alamarBlue anti-proliferative assay), Hep 3B; conditions: for cytotoxicity against Hep3B (in words): summary of Table 1; for TGI (Total growth Inhibition) / CC50: Hep-3B, 72-hour incubation, alamarBlue; for IC50 / CC50: Homo sapiens; for cytotoxicity against Hep3B (in words) / IC50 / CC50: Hep3B; for IC50: 72 h, read-out: IC50 (50% Inhibition Concentration); for CC50: read-out: LC50 (50% Lethal Concentration)
Excerpt: as §1, §2, §3, §4, §5, §6, §7, §8, §9, §10

HT-29 = assay: Cytotoxicity Assays Method A (alamarBlue anti-proliferative assay), HT-29; conditions: for TGI (Total growth Inhibition) / LC50 (50% lethal concentration): HT-29, 72-hour incubation, alamarBlue; for IC50 / LC50 (50% lethal concentration): Homo sapiens; for IC50: HT-29, 72 h, read-out: IC50 (50% Inhibition Concentration)
Excerpt: as §1, §2, §3, §4, §5, §6, §7, §8, §9, §10

[1] = tested on: p-gp-expressing epidermoid carcinoma of the nasopharynx (KB-VIN); assay: Cytotoxicity Assays Method C, KB-VIN; conditions: for IC50: 50% reduction in cell number after 72 hr of incubation; for activity against the MDR cell line KB-VIN (in words): summary of Table 3
Excerpt: Cytotoxicity Assays Method C (KB, KB-VIN, AS49, HCT-8, PC-3) [K. H. Lee et. al. Planta Med. 54, 308-312 (1998), Monk A et. al. J. Natl. Cancer Inst. 83, 757-766 (1991).] The cell lines included epidermoid caninoma of the nasopharynx (KB), p-gp-expressing epidermoid caninoma of the nasopharynx (KB-VIN), lung carcinoma (A-549), ileocecal carinoma (HCT-8) and prostate cancer (PC-3) cell lines.

lung carcinoma (A-549) = assay: Cytotoxicity Assays Method C, A-549; conditions: Homo sapiens, A549, 72 h, read-out: IC50 A549
[2] = tested on: ileocecal carcinoma (HCT-8); assay: Cytotoxicity Assays Method C, HCT-8; conditions: Homo sapiens, HCT-8, 72 h, read-out: IC50 HCT-8
[3] = tested on: epidermoid carcinoma of the nasopharynx (KB); assay: Cytotoxicity Assays Method C, KB; conditions: 72 h, read-out: IC50 KB
MCF-7 = assay: Cytotoxicity Assays Method A (alamarBlue anti-proliferative assay), MCF-7; conditions: for IC50 / CC50: Homo sapiens; for IC50: MCF7, 72 h, read-out: IC50 (50% Inhibition Concentration); for CC50: MCF7, read-out: LC50 (50% Lethal Concentration); for CC50 / TGI (Total growth Inhibition): MCF-7, 72-hour incubation, alamarBlue; for cytotoxicity against MCF-7 (in words): MCF-7, summary of Table 1
Excerpt: as §1, §2, §3, §4, §5, §6, §7, §8, §9, §10

HUVEC = assay: Cytotoxicity Assays Method A (alamarBlue anti-proliferative assay), HUVEC; conditions: for TGI (Total growth Inhibition): 72-hour incubation, alamarBlue; for IC50: Homo sapiens, 72 h, read-out: IC50 (50% Inhibition Concentration)
Excerpt: as §1, §2, §3, §4, §5, §6, §7, §8, §9, §10

[4] = as above; conditions: human, HUVEC (human umbilical vein endothelial cells), 72-hour incubation, alamarBlue
Excerpt: as §1, §2, §3, §4, §5, §6, §7, §8, §9, §10

[5] = tested on: Human promyeloid leukemia HL-60 cells; assay: Cytotoxicity Assays Method B (MTT proliferation assay), HL-60; conditions: Homo sapiens, HL-60, 96 h, read-out: IC50 (concentration at which 50% of the cells are inhibited from growing)
Protocol: Cytotoxicity Assays Method B (HL-60) [H. M. Chen et al. Chin. Pharm. J. 53, 157-167 (2001)]
Human promyeloid leukemia HL-60 cells were obtained from the American Type
Culture Collection (Manassas, Va., USA) and the Culture Collection and Research Center(CCRC) (Tai wan, ROC). Human promyeloid leukemia HL-60 cells were cultured in suspension in RPMI-1640 medium (GIBCO, Grand Is land, USA), containing 10% fetal bovine se rum (GIBCO, Grand Is land, USA), 100 unit/mL penicillin, […] streptomycin and 1% L-glutamine at 37° C. in a humidified atmosphere of 5% CO2 in air. Cells were split every day to maintain the cell numbers between 2−5×10^5/mL. Cell numbers were assessed by the standard procedure of leukocyte counting using a hemocytometer and cell viability was checked by the ability of cells to exclude Trypan blue.
Cellular proliferation was determined by the MTT [3-(4,5-dimethylthiazol-2-yl)-2,5-diphenyltetrazolium bromide] as say. Briefly, […] of MTT (5 mg/mL) was added to each well of 96-well plates containing 1×10^5 cells after treatment with different concentrations of samples for 4 days. The reaction was stopped after 2 h by adding […] of 0.04 N HCl in isopropanol and the OD570 nm was determined by a minicolorimetric reader. Each concentration treatment was performed in triplicate.

| SMILES | IC50 (NCI-H460) | CC50 (NCI-H460) | TGI (Total growth Inhibition) (NCI-H460) | IC50 (prostate cancer (PC-3)) | activity against the androgen-insensitive prostate cancer cell line PC-3 (in words) (prostate cancer (PC-3)) | cytotoxicity against Hep3B (in words) (Hep 3B) | TGI (Total growth Inhibition) (Hep 3B) | IC50 (Hep 3B) | CC50 (Hep 3B) | TGI (Total growth Inhibition) (HT-29) | IC50 (HT-29) | LC50 (50% lethal concentration) (HT-29) | activity against the MDR cell line KB-VIN (in words) [1] | IC50 (lung carcinoma (A-549)) | IC50 [2] | IC50 [3] | IC50 (MCF-7) | CC50 (MCF-7) | TGI (Total growth Inhibition) (MCF-7) | cytotoxicity against MCF-7 (in words) (MCF-7) | further results |
| --- | --- | --- | --- | --- | --- | --- | --- | --- | --- | --- | --- | --- | --- | --- | --- | --- | --- | --- | --- | --- | --- |
| CC(OC(=O)CCC(=O)O)c1cc2c(s1)C(=O)c1sccc1C2=O (stereo not drawn) [IIb-1, Mono-[1-(4,8-dioxo-4,8-dihydrobenzo[1,2-b:5,4-b′]dithiophen-2-yl)-ethyl]succinate] | 640 nM | 2100 nM | 1200 nM | 220 nM | potent activity | significant activity | 1800 nM | 1100 nM | 2900 nM | 2000 nM | 4300 nM | 89000 nM | potent activity | 580 nM | 910 nM | 470 nM | 820 nM | 27000 nM | 4700 nM | significant activity | IC50 ([1]; Homo sapiens, KBVIN, 72 h): 250 nM; TGI (Total growth Inhibition) (HUVEC): 31000 nM; IC50 (HUVEC): 11000 nM; LC50 (50% lethal concentration) at 72 h [4]: 89000 nM; IC50 [5]: 260 nM |
| CC(OC(=O)CCC(=O)O)c1cc2c(s1)C(=O)c1ccsc1C2=O (stereo not drawn) [VII-1, Mono-[1-(4,8-dioxo-4,8-dihydroxybenzo[1,2-b;4,5-b′]dithiophen-2-yl)-ethyl]succinate] | 410 nM | 3000 nM | 1100 nM | 160 nM | potent activity | significant cytotoxicity | 1900 nM | 1000 nM | 3400 nM | 38000 nM | 4500 nM | > 100000 nM | potent activity | 470 nM | 420 nM | 190 nM | 960 nM | 31000 nM | 5500 nM | significant cytotoxicity | activity against HT-29 (in words) (HT-29; HT-29, summary of Table 1): moderate activity; IC50 [1]: 220 nM; TGI (Total growth Inhibition) (HUVEC): 57000 nM; IC50 (HUVEC): 11000 nM; LC50 (50% lethal concentration) at 72 h [4]: > 100000 nM; IC50 [5]: 260 nM |
